{"source": "ChEMBL document CHEMBL4680163", "about": "“Discovery of potent epidermal growth factor receptor (EGFR) degraders by proteolysis targeting chimera (PROTAC)” (Eur J Med Chem, 2020)", "data": [{"test_system": "HCC827", "test": "Induction of apoptosis in human HCC827 cells assessed as viable cells at 1 uM incubated for 32 hrs by annexin V-FITC and PI staining based flow cytometry analysis (reference value: 72.15 %)", "assay_type": "functional", "settings": "read-out: Activity", "units": {"viability at 1 µM": "%"}, "values": [{"smiles": "C=CC(=O)Nc1cc(Nc2nccc(-c3cn(C)c4ccccc34)n2)c(OC)cc1N(C)CCN(C)C", "note": "[OSIMERTINIB]", "viability at 1 µM": 24}]}, {"test_system": "HCC827", "test": "Induction of cell cycle arrest in human HCC827 cells assessed as accumulation in G1 phase at 0.1 uM incubated for 32 hrs by PI staining based flow cytometry analysis (reference value: 50.48 %)", "assay_type": "functional", "settings": "not given", "units": {"Activity": "%"}, "values": [{"smiles": "C=CC(=O)Nc1cc(Nc2nccc(-c3cn(C)c4ccccc34)n2)c(OC)cc1N(C)CCN(C)C", "note": "[OSIMERTINIB]", "Activity": 82.45}]}, {"test_system": "NCI-H1975", "test": "Antiproliferative activity against human NCI-H1975 cells harboring EGFR L858/T790M mutant assessed as reduction in cell viability incubated for 72 hrs by MTT assay", "assay_type": "functional, cell-based", "settings": "NCI-H1975, 72 h", "units": {"IC50": "nM"}, "values": [{"smiles": "C=CC(=O)Nc1cc(Nc2nccc(-c3cn(C)c4ccccc34)n2)c(OC)cc1N(C)CCN(C)C", "note": "[OSIMERTINIB]", "IC50": "[…]"}]}, {"test_system": "A549", "test": "Antiproliferative activity against human A549 cells harboring EGFR assessed as reduction in cell viability incubated for 72 hrs by MTT assay", "assay_type": "functional, cell-based", "settings": "A549, 72 h", "units": {"IC50": "nM"}, "values": [{"smiles": "C=CC(=O)Nc1cc(Nc2nccc(-c3cn(C)c4ccccc34)n2)c(OC)cc1N(C)CCN(C)C", "note": "[OSIMERTINIB]", "IC50": 900}]}, {"test_system": "HCC827", "test": "Induction of cell cycle arrest in human HCC827 cells assessed as accumulation in S phase at 1 uM incubated for 32 hrs by PI staining based flow cytometry analysis (reference value: 41.26 %)", "assay_type": "functional", "settings": "not given", "units": {"Activity": "%"}, "values": [{"smiles": "C=CC(=O)Nc1cc(Nc2nccc(-c3cn(C)c4ccccc34)n2)c(OC)cc1N(C)CCN(C)C", "note": "[OSIMERTINIB]", "Activity": 10.16}]}, {"test_system": "HCC827", "test": "Induction of apoptosis in human HCC827 cells assessed as necrotic cells at 1 uM incubated for 32 hrs by annexin V-FITC and PI staining based flow cytometry analysis (reference value: 7.12 %)", "assay_type": "functional", "settings": "not given", "units": {"Activity": "%"}, "values": [{"smiles": "C=CC(=O)Nc1cc(Nc2nccc(-c3cn(C)c4ccccc34)n2)c(OC)cc1N(C)CCN(C)C", "note": "[OSIMERTINIB]", "Activity": 10.32}]}, {"test_system": "HCC827", "test": "Induction of cell cycle arrest in human HCC827 cells assessed as accumulation in G2 phase at 0.1 uM incubated for 32 hrs by PI staining based flow cytometry analysis (reference value: 8.25 %)", "assay_type": "functional", "settings": "not given", "units": {"Activity": "%"}, "values": [{"smiles": "C=CC(=O)Nc1cc(Nc2nccc(-c3cn(C)c4ccccc34)n2)c(OC)cc1N(C)CCN(C)C", "note": "[OSIMERTINIB]", "Activity": 8.26}]}, {"test_system": "HCC827", "test": "Induction of apoptosis in human HCC827 cells assessed as late apoptotic cells at 0.1 uM incubated for 32 hrs by annexin V-FITC and PI staining based flow cytometry analysis (reference value: 14.23 %)", "assay_type": "functional", "settings": "not given", "units": {"Activity": "%"}, "values": [{"smiles": "C=CC(=O)Nc1cc(Nc2nccc(-c3cn(C)c4ccccc34)n2)c(OC)cc1N(C)CCN(C)C", "note": "[OSIMERTINIB]", "Activity": 55.86}]}, {"test_system": "HCC827", "test": "Induction of cell cycle arrest in human HCC827 cells assessed as accumulation in G2 phase at 1 uM incubated for 32 hrs by PI staining based flow cytometry analysis (reference value: 8.25 %)", "assay_type": "functional", "settings": "not given", "units": {"Activity": "%"}, "values": [{"smiles": "C=CC(=O)Nc1cc(Nc2nccc(-c3cn(C)c4ccccc34)n2)c(OC)cc1N(C)CCN(C)C", "note": "[OSIMERTINIB]", "Activity": 9.71}]}, {"test_system": "HCC827", "test": "Induction of apoptosis in human HCC827 cells assessed as necrotic cells at 0.1 uM incubated for 32 hrs by annexin V-FITC and PI staining based flow cytometry analysis (reference value: 6.68 %)", "assay_type": "functional", "settings": "not given", "units": {"Activity": "%"}, "values": [{"smiles": "C=CC(=O)Nc1cc(Nc2nccc(-c3cn(C)c4ccccc34)n2)c(OC)cc1N(C)CCN(C)C", "note": "[OSIMERTINIB]", "Activity": 15.24}]}, {"test_system": "HCC827", "test": "Induction of apoptosis in human HCC827 cells assessed as early apoptotic cells at 1 uM incubated for 32 hrs by annexin V-FITC and PI staining based flow cytometry analysis (reference value: 2.72%)", "assay_type": "functional", "settings": "not given", "units": {"Activity": "%"}, "values": [{"smiles": "C=CC(=O)Nc1cc(Nc2nccc(-c3cn(C)c4ccccc34)n2)c(OC)cc1N(C)CCN(C)C", "note": "[OSIMERTINIB]", "Activity": 6.11}]}, {"test_system": "HCC827", "test": "Induction of cell cycle arrest in human HCC827 cells assessed as accumulation in G1 phase at 1 uM incubated for 32 hrs by PI staining based flow cytometry analysis (reference value: 50.48 %)", "assay_type": "functional", "settings": "not given", "units": {"Activity": "%"}, "values": [{"smiles": "C=CC(=O)Nc1cc(Nc2nccc(-c3cn(C)c4ccccc34)n2)c(OC)cc1N(C)CCN(C)C", "note": "[OSIMERTINIB]", "Activity": 80.12}]}, {"test_system": "HCC827", "test": "Induction of apoptosis in human HCC827 cells assessed as early apoptotic cells at 0.1 uM incubated for 32 hrs by annexin V-FITC and PI staining based flow cytometry analysis (reference value: 2.31 %)", "assay_type": "functional", "settings": "not given", "units": {"Activity": "%"}, "values": [{"smiles": "C=CC(=O)Nc1cc(Nc2nccc(-c3cn(C)c4ccccc34)n2)c(OC)cc1N(C)CCN(C)C", "note": "[OSIMERTINIB]", "Activity": 5.07}]}, {"test_system": "HCC827", "test": "Induction of apoptosis in human HCC827 cells assessed as viable cells at 0.1 uM incubated for 32 hrs by annexin V-FITC and PI staining based flow cytometry analysis (reference value: 76.79 %)", "assay_type": "functional", "settings": "read-out: Activity", "units": {"viability at 0.1 µM": "%"}, "values": [{"smiles": "C=CC(=O)Nc1cc(Nc2nccc(-c3cn(C)c4ccccc34)n2)c(OC)cc1N(C)CCN(C)C", "note": "[OSIMERTINIB]", "viability at 0.1 µM": 23.8}]}, {"test_system": "HCC827", "test": "Induction of cell cycle arrest in human HCC827 cells assessed as accumulation in S phase at 0.1 uM incubated for 32 hrs by PI staining based flow cytometry analysis (reference value: 41.26 %)", "assay_type": "functional", "settings": "not given", "units": {"Activity": "%"}, "values": [{"smiles": "C=CC(=O)Nc1cc(Nc2nccc(-c3cn(C)c4ccccc34)n2)c(OC)cc1N(C)CCN(C)C", "note": "[OSIMERTINIB]", "Activity": 9.29}]}, {"test_system": "HCC827", "test": "Antiproliferative activity against human HCC827 cells harboring EGFRDel19 mutant assessed as reduction in cell viability incubated for 72 hrs by MTT assay", "assay_type": "functional, cell-based", "settings": "HCC827, 72 h", "units": {"IC50": "nM"}, "values": [{"smiles": "C=CC(=O)Nc1cc(Nc2nccc(-c3cn(C)c4ccccc34)n2)c(OC)cc1N(C)CCN(C)C", "note": "[OSIMERTINIB]", "IC50": 36}]}, {"test_system": "HCC827", "test": "Induction of apoptosis in human HCC827 cells assessed as late apoptotic cells at 1 uM incubated for 32 hrs by annexin V-FITC and PI staining based flow cytometry analysis (reference value: 18.02%)", "assay_type": "functional", "settings": "not given", "units": {"Activity": "%"}, "values": [{"smiles": "C=CC(=O)Nc1cc(Nc2nccc(-c3cn(C)c4ccccc34)n2)c(OC)cc1N(C)CCN(C)C", "note": "[OSIMERTINIB]", "Activity": 59.59}]}, {"test_system": "A-431", "test": "Antiproliferative activity against human A-431 cells harboring EGFR assessed as reduction in cell viability incubated for 72 hrs by MTT assay", "assay_type": "functional, cell-based", "settings": "A-431, 72 h", "units": {"IC50": "nM"}, "values": [{"smiles": "C=CC(=O)Nc1cc(Nc2nccc(-c3cn(C)c4ccccc34)n2)c(OC)cc1N(C)CCN(C)C", "note": "[OSIMERTINIB]", "IC50": "[…]"}]}]}
